# Reference: PubChem BioAssay AID1508591
# Settings: rat; liver microsomes; pH 7.4; 15.0 min; 1.0 µM
row,Compound,half-life
1,O=C1/C(=C\c2ccccc2)C[C@@]2(O)C3Cc4ccc(O)c5c4[C@@]2(CCN3CC2CC2)[C@H]1O5,3.37 min
2,Cc1ccc(Cl)cc1NS(=O)(=O)c1cc2c(cc1F)NC(=O)CC2,4.97 min
3,CCOC(=O)C1CCN(c2nc(-c3ccc(Br)cc3)cs2)CC1,2.19 min
4,N#Cc1nc(-c2cccc3ccccc23)oc1NC1COC1,28 min
5,CCCNC(=O)c1ccc2c(c1)ncn2-c1cc(C)cc(C)c1,17 min
6,CCOc1ccccc1C(=O)Nc1ccccc1C(=O)Nc1cccc(S(=O)(=O)C(F)(F)F)c1,> 30 min
7,CCNC(=O)c1ccc(-c2ccc3ncnc(NCC4CCCO4)c3c2)o1 (centres undefined),> 30 min
8,Fc1cc(Nc2nc(-c3ccncc3)nc3ccccc23)ccc1N1CCCC1,5.8 min
9,Cc1ccc(S(=O)(=O)Nc2ccc(C(=O)Nc3nc(-c4ccc(Cl)cc4)cs3)cc2)cc1,16 min
10,O=C(Nc1nc(-c2ccc(Cl)s2)cs1)c1cccs1,19.5 min
11,CCCCC(C)/C=C(C)/C=C(\C)C(=O)NC1=CC(O)(/C=C/C=C/C=C/C(=O)NC2=C(O)CCC2=O)C2OC2C1=O (centres undefined),1.83 min
12,CCOc1ccc(CCNC(=O)c2cc3ccncc3n2Cc2cccc(C)n2)cc1OCC,29 min
13,Nc1nc2c(s1)C(c1ccccc1OCc1ccccc1Cl)CC(=O)N2 (centres undefined),6.28 min
14,COc1cccc(NC(=O)c2cccc3c(=O)c4c([nH]c23)CCCC4)c1,16.3 min
15,O=C(O)c1ccc(N2C(=O)/C(=C/c3ccc(-c4ccc([N+](=O)[O-])cc4)o3)C=C2c2ccccc2)cc1,> 30 min
16,CCN(CC)CCNC(=O)C1CCN(c2nn3cc(-c4ccc(F)cc4)nc3s2)CC1,> 30 min
17,COC(=O)c1ccc(NS(=O)(=O)c2c(C)nc3sccn3c2=O)cc1,3.88 min
18,O=C(Nc1ccc(S(=O)(=O)Nc2nccs2)cc1)c1ccnc2ccccc12,> 30 min
19,CCOC(=O)CCNc1cc(N2CCc3ccccc3CC2)nc(-c2ccccn2)n1,1.5 min
20,Fc1ccc(CNc2nc(-c3ccncc3)nc3ccccc23)cc1F,11 min
21,Cc1ccc(C)n1-c1cccc(C(=O)O)c1,12 min
22,CC(=O)NCCNC[C@@H]1C=C(C)[C@H](Cc2nnc(-c3ccccc3)o2)C[C@H]1C(C)C,5.06 min
23,c1ccc2c(Nc3ccon3)nc(-c3ccncc3)nc2c1,6.2 min
24,Cc1c(-c2cccc(NC(=O)c3ccc(F)c(F)c3)c2)nc2ncccn12,12.6 min
25,Cc1nc(NCc2ccco2)nc2c1C(=O)CC(C)C2 (centres undefined),2.7 min

row,Compound,half-life
1,C#CCNC(=O)c1nc(-c2ccc([S+](C)(=O)[O-])cc2)c2ccccn12,> 30 min
2,COc1ccc(NC(=O)c2ccc[nH]2)cc1S(=O)(=O)Nc1ccc(Br)cc1,7.44 min
3,O=C(Nc1cc(Cc2ccccc2)ccn1)c1ccc(-c2cccc([N+](=O)[O-])c2)o1,4.8 min
4,C[C@@H](O)CNC(C)(C)CC(=O)N[C@@H]1CCc2ccccc2N(Cc2ccc(-c3ccccc3-c3nn[nH]n3)cc2)C1=O,> 30 min
5,O=C(NCCc1ccccc1)C1CCN(c2nc(-c3ccc(Br)cc3)cs2)CC1,1.71 min
6,Cc1ccc(-n2nc3c(=O)n(CCCC(=O)NCc4ccc(F)cc4)nc(C)c3c2C)cc1,2.77 min
7,O=C(Nc1ccc(N2CCC(N3CCCCC3)CC2)c(C(=O)O)c1)c1ccc(Br)cc1,> 30 min
8,NC1CCN(C(=O)C2CCCN(c3nc(-c4ccccc4)nc4c3CCC4)C2)CC1 (centres undefined),> 30 min
9,COc1cccc(S(=O)(=O)Nc2cnccc2C(=O)Nc2nc(-c3ccccc3)cs2)c1,6.7 min
10,COC(=O)c1nc(-c2cccc3ccccc23)oc1OC,14 min
11,CS(=O)(=O)c1ccc2nc(NC(=O)C3CC3)sc2c1,> 30 min
12,O=C(/C=C/c1cn(CC(O)CN2CCCCCC2)c2ccccc12)c1ccc(Br)cc1 (centres undefined),24.2 min
13,COc1ccc(-n2nc(C3CCCN([S+](=O)([O-])c4cccc(C(F)(F)F)c4)C3)[nH]c2=O)cc1 (centres undefined),6.33 min
14,NS(=O)(=O)c1ccc(NC(=O)c2cc3ncccn3n2)cc1,> 30 min
15,Cc1cc(-c2ccc(C)c(S(=O)(=O)NCC3CCN(Cc4ccc(F)cc4)CC3)c2)on1,5.49 min
16,O=C(Cc1ccc(Cl)cc1)Nc1cnccc1C(=O)O,> 30 min
17,Fc1ccccc1-c1nc(NCc2ccc(-c3cccnc3)cc2)c2ccccc2n1,5.9 min
18,CCNC(=O)c1noc(-c2cc(C(C)C)c(O)cc2O)c1-c1ccc(CN2CCOCC2)cc1,4.7 min
19,N#Cc1cccc(S(=O)(=O)Nc2cnccc2C(=O)Nc2nc(-c3ccccc3)cs2)c1,14 min
20,Fc1cccc(-c2ccc(Nc3nc(-c4ccncc4)nc4ccccc34)cc2F)c1,> 30 min
21,CC[C@@]1(O)C(=O)OCc2c1cc1n(c2=O)Cc2cc3ccccc3nc2-1,> 30 min
22,CC(=O)c1c(C)[nH]c(C(=O)Nc2ccc(Cl)cc2)c1C,> 30 min
23,NC(=O)C1CCN(c2ncc(-c3ccc4c(c3)OCCO4)s2)CC1,4.94 min
24,Clc1cccc(-c2ccc(-c3nnc(CCCc4ccc5cccnc5n4)o3)cc2)c1,2.3 min
